Measured values from PMC3893112 (Journal of medicinal chemistry, 2013).

Experiments:
[1] = molecular target: human μ opioid receptor over-expressed in CHO cells (Homo sapiens, UniProt P35372); test: [35S]GTPγS binding assay, agonist mode, μ; format: biochemical
[2] = molecular target: T1, human δ opioid receptor over-expressed in CHO cells (Homo sapiens, UniProt P41143); test: [35S]GTPγS binding assay, agonist mode, δ; format: biochemical; details: for Agonist activity at the δ receptor (in words): [35S]GTPγS
T1 sequence (P41143 whole entry): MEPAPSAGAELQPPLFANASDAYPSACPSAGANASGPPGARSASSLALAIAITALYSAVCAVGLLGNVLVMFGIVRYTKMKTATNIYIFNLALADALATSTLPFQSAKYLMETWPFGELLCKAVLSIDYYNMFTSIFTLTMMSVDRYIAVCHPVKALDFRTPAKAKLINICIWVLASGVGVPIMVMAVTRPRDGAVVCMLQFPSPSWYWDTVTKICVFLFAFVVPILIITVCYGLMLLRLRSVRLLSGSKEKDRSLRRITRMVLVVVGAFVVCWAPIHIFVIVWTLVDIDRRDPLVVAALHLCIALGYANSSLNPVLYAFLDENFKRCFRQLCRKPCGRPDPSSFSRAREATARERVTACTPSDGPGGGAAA

[3] = molecular target: T2, human κ opioid receptor over-expressed in CHO cells (Homo sapiens, UniProt P41145); test: [35S]GTPγS binding assay, agonist mode, κ; format: biochemical
T2 sequence (P41145 whole entry): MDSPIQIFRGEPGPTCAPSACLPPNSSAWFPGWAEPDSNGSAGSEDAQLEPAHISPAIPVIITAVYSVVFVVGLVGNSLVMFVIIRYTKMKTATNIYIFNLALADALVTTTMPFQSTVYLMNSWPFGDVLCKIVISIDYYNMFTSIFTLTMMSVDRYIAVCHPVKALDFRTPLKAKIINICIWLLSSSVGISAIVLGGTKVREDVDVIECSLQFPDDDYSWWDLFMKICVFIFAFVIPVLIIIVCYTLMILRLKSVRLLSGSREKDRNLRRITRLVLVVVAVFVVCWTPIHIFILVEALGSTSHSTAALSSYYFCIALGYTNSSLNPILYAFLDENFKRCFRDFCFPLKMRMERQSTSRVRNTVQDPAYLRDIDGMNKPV

[4] = molecular target: T1, human δ opioid receptor over-expressed in CHO cells; test: Inhibition of DPDPE-stimulated [35S]GTPγS binding; format: biochemical; details: for Antagonist δ, DPDPE Ke: vs DPDPE-stimulated [35S]GTPγS binding
[5] = molecular target: T2, human κ opioid receptor over-expressed in CHO cells; test: Inhibition of κ agonist-stimulated [35S]GTPγS binding; format: biochemical; details: for Antagonist κ, U50,488 Ke: vs κ agonist-stimulated [35S]GTPγS binding
human MOR = human MOR (Homo sapiens, UniProt P35372); test: Competition radioligand binding, [3H]DAMGO; details: Ki vs Kd of DAMGO
Sequence of human MOR (P35372 whole entry): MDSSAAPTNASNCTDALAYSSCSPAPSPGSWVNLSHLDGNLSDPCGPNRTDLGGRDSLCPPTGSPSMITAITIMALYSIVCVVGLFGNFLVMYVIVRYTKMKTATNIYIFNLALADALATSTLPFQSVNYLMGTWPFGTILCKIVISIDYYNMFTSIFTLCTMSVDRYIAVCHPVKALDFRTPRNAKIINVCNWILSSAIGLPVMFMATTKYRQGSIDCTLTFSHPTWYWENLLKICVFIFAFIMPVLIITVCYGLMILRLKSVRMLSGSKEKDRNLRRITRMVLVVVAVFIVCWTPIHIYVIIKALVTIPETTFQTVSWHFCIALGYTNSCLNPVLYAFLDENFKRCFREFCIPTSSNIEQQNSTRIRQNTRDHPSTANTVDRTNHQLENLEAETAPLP

Sequence of human μ opioid receptor over-expressed in CHO cells (P35372 whole entry): as above

Compound	IC50 [1] [nM]	EC50 [2] [nM]	EC50 [3] [nM]	Kb [4] [nM]	Antagonist δ, DPDPE Ke [4] [nM]	Kb [5] [nM]	Antagonist κ, U50,488 Ke [5] [nM]	EC50 [1] [nM]	Affinity for MOR compared with DAMGO (human MOR)	Agonist activity at the δ receptor (in words) [2]
C[C@H]1CN(CCCc2ccccc2)[C@@H]2C[C@@H](N)C[C@@]1(c1cccc(O)c1)C2 [Compound 6, (1S,4R,5R,7S)-7-aminomorphan]	20.6	> 5000	> 5000	25.2 ± 8	25.2	21.7 ± 7	21.7			
C[C@@H]1CN(CCCc2ccccc2)[C@@H]2CCC[C@]1(c1cccc(O)c1)C2.Cl [Compound 4, 3-[(1R,4S,5S)-4-Methyl-2-(3-phenylpropyl)-2-azabicyclo[3.3.1]non-5-yl]phenol]		> 5000	> 5000					> 5000		
CCN(C)[C@H]1C[C@H]2C[C@@](c3cccc(O)c3)(C1)[C@H](C)CN2CCCc1ccccc1 [Compound 5g, 7-(N-Ethylmethylamino)-5-(3-hydroxyphenyl)-4-methyl-2-(3-phenylprop-1-yl)-2 azabicyclo[3.3.1]nononane]		> 5000	> 5000	> 5000		93 ± 29				
C[C@@H]1CN(CCCc2ccccc2)[C@H]2C[C@H](NCC3CC3)C[C@]1(c1cccc(O)c1)C2.Cl.Cl [Compound 5e, 7-(N-Cyclopropylmethylamino)-5-(3-hydroxyphenyl)-4-methyl-2-(3-phenylprop-1-yl)-2-azabicyclo[3.3.1]nononane]		> 5000	> 5000							
C[C@@H]1CN(CCCc2ccccc2)[C@H]2C[C@H](N(C)CC3CC3)C[C@]1(c1cccc(O)c1)C2.Cl.Cl [Compound 5h, 7-(N-Cyclopropylmethylmethylamino)-5-(3-hydroxyphenyl)-4-methyl-2-(3-phenylprop-1-yl)-2-azabicyclo[3.3.1]nononane]									higher affinity for MOR than DAMGO	
CCCN[C@H]1C[C@H]2C[C@@](c3cccc(O)c3)(C1)[C@H](C)CN2CCCc1ccccc1.Cl.Cl [Compound 5d, 5-(3-Hydroxyphenyl)-4-methyl-2-(3-phenylprop-1-yl)-7-propylamino-2-azabicyclo[3.3.1]nononane]		> 5000		69.4 ± 16	69.4					no agonist activity
CCN[C@H]1C[C@H]2C[C@@](c3cccc(O)c3)(C1)[C@H](C)CN2CCCc1ccccc1.Cl.Cl [Compound 5c, 7-Ethylamino-5-(3-hydroxyphenyl)-4-methyl-2-(3-phenlylprop-1-yl)-2-azabicyclo[3.3.1]nononane]		> 5000	> 5000	230 ± 93	230	60.8 ± 19	60.8			complete loss of agonist activity
C[C@@H]1CN(CCCc2ccccc2)[C@H]2C[C@H](N)C[C@]1(c1cccc(O)c1)C2.Cl.Cl [Compound 5a, (−)-5-(3-hydroxyphenyl)-4-methyl-2-(3-phenylpropyl)-2-azabicyclo[3.3.1]nonan-7-amine]			> 5000			10.1 ± 3	10.1			
CN[C@H]1C[C@H]2C[C@@](c3cccc(O)c3)(C1)[C@H](C)CN2CCCc1ccccc1.Cl.Cl [Compound 5b, 5-(3-Hydroxyphenyl)-4-methyl-7-methylamino-2-(3-phenylprop-1-yl)-2-azabicyclo[3.3.1]nononane]			> 5000			43.8 ± 8	43.8		higher affinity for MOR than DAMGO	
C[C@@H]1CN(CCCc2ccccc2)[C@H]2C[C@H](N(C)C)C[C@]1(c1cccc(O)c1)C2.Cl.Cl [Compound 5f, 7-Dimethylamino-5-(3-hydroxyphenyl)-4-methyl-2-(3-phenylprop-1-yl)-2-azabicyclo[3.3.1]nononane]			> 5000			176 ± 50	176		higher affinity for MOR than DAMGO	
